pIC50: −log10 of the molar value.

One assay concerns the target T1, hROMK1 (Kir1.1) (Homo sapiens, UniProt P48048).
T1 construct: expressed in transfected cells
T1 sequence (P48048 1-391): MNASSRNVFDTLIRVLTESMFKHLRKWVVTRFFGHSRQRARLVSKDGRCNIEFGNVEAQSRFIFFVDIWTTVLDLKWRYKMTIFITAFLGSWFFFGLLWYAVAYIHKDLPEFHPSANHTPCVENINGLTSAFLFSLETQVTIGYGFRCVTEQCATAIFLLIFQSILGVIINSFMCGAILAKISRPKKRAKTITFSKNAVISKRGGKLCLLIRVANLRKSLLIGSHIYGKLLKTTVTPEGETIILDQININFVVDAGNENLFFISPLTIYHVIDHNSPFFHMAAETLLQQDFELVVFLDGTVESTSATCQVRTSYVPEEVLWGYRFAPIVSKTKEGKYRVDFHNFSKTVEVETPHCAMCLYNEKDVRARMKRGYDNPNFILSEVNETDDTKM
The experiment in a line: ^86Rb^+ Efflux Assay. It is filed as cell-based. The conditions noted are these: CHO-DHFR- cells stably expressing hROMK1; potency ranges. The protocol:
(§1) Several assays may be used to measure functional inhibition of the ROMK channel by compounds of the instant invention. One primary assay that can be used is a functional ^86Rb^+ efflux assay that measures the ability of ROMK to permeate ^86Rb^+, in the absence or presence of test compound. Under control conditions, cells loaded with ^86Rb^+ and incubated in Rb^+-free medium display a time-dependent efflux of the isotope, the rate of which depends on number of functional channels. When cells are incubated in the presence of a channel inhibitor, efflux of ^86Rb^+ is prevented in a concentration-dependent manner, and IC50 values of inhibition by compounds can be accurately determined. This assay has been established with cell lines expressing either human, rat or dog ROMK channels, and can operate in 96- or 384-well format. Importantly, the human, rat, and dog ^86Rb^+ efflux assays can be carried out in the presence of up to 100% serum allowing, therefore, an accurate estimation of the effect of protein binding on the inhibitory activity of compounds of interest. Another ROMK functional assay makes use of the ability of thallium to permeate through open ROMK channels and increase the fluorescence of a dye previously loaded into the cells. Under control conditions, cells loaded with dye and exposed to thallium-containing medium display a time-dependent increase in fluorescence, the rate of which depends on number of functional channels. When cells are incubated in the presence of a channel inhibitor, the increase in fluorescence is attenuated in a concentration-dependent manner, and IC50 values of inhibition by compounds can be accurately determined. This assay has been established with cell lines expressing either human, or rat ROMK channels, and operates in 384-well format. Another assay for evaluation of the compounds of the instant invention and for evaluation of mechanism of action of compounds of Formula I relies on the measurement of the electrical current that is generated as potassium permeates through the channel. For these electrophysiological experiments, three different platforms, IonWorks, QPatch, or manual patch clamp, are used, depending on the experimental protocol under consideration. IonWorks operates in a 384-well format and allows accurate determination of IC50 values for inhibitors.
CHO-DHFR-cells stably expressing hROMK1 (Kir1.1) were grown at 37° C. in a 10% CO2 humidified incubator in Iscove's Modified Dulbecco's Medium (Gibco 12440) supplemented with HT Supplement, Penicillin/Streptomycin/Glutamine, G418 (500 μg/ml) and 10% FBS. Cells were seeded in Sterile and Tissue Culture Treated Packard CulturPlate White Opaque Microplates at a concentration of 5.0E5-7.0E5 cells/ml—PerkinElmer 6005680 (96-well); Corning 3707 (384 well) in complete media containing 1.5 μCi/ml Rubidium-86. Cells were incubated in 37° C.-10% CO2 incubator overnight. On the day of the experiment, the media was removed and cells washed with low K assay buffer. ^86Rb^+ efflux was initiated after addition of assay buffer±test compound followed by 35 min incubation at room temperature. ROMK-sensitive component of efflux was defined in the presence of 10 mM BaCl2. Assay buffer was removed and transferred to a plate and cells were solubilized in the presence of SDS. Radioactivity associated with assay and cell plate was determined.
• 1. Removed cell media and washed cells with low K assay buffer (126.9 mM NaCl, 4.6 mM KCl, 2 mM CaCl2, 1 mM MgCl2, 10 mM Hepes/NaOH; pH 7.4) • 200 μl for 96-well plate; 70 μl for 384-well plate • 2. Added assay buffer (121.5 mM NaCl, 10 mM KCl, 2 mM CaCl2, 1 mM MgCl2, 10 mM Hepes/NaOH; pH 7.4)±test compound to cells • 100 μl for 96-well plate; 50 μl for 384-well plate • 3. Incubated at ambient temperature (22-24° C.) for 35 min • 4.
For `COc1cc(CC(=O)N2CCC(CCc3ccc4c(c3)CCOC4=O)CC2)c(F)cc1C#N` [Example 67, 5-Fluoro-2-methoxy-4-(2-oxo-2-{4-[2-(1-oxo-3,4-dihydro-1H-isochromen-6-yl)ethyl]piperidin-1-yl}ethyl)benzonitrile], the negative-log IC50 (pIC50) was at least 6.30.
Same read-out and setting: to `O=C1OCc2c1ccc(/C=C/C1CCN(C(=O)Cc3ccc(-n4cnnn4)cc3)CC1)c2Br` [Example 68, 4-Bromo-5-[(E)-2-(1-{[4-(1H-tetrazol-1-yl)phenyl]acetyl}piperidin-4-yl)ethenyl]-2-benzofuran-1(3H)-one] belongs at least 6.30; to `COc1cc(C#N)c(F)cc1CC(=O)N1CCC(CCc2ccc3c(c2)COC3=O)CC1` [Example 70, 2-Fluoro-5-methoxy-4-(2-oxo-2-{4-[2-(1-oxo-1,3-dihydro-2-benzofuran-5-yl)ethyl]piperidin-1-yl}ethyl)benzonitrile], at least 6.70; to `COc1cc(CCN2CCC(CCc3ccc4c(c3)COC4=O)CC2)ccc1C#N` [Example 71, 2-Methoxy-4-(2-{4-[2-(1-oxo-1,3-dihydro-2-benzofuran-5-yl)ethyl]piperidin-1-yl}ethyl)benzonitrile], at least 6.70.
Molecule `O=C1OCc2cc(CCC3CCN(C(=O)C4CCc5cc(-n6cnnn6)ccc54)CC3)ccc21` (stereo not shown) [Example 72, 5-[2(1-{[5(1H-Tetrazol-1-yl)-2,3-dihydro-1H-inden-yl]carbonyl}piperidin-4-yl)ethyl]-2-benzofuran-1(3H)-one] had a pIC50 of at least 6.70.
Still for that read-out and setting: the same measure for `CC1Cc2cc(/C=C/C3CCN(C(=O)Cc4ccc(-n5cnnn5)cc4)CC3)ccc2C(=O)O1` (stereo not shown) [Example 79, 3-Methyl-6-[(E)-2-(1-{[4-(1H-tetrazol-1-yl)phenyl]acetyl}piperidin-4-yl)ethenyl]-3,4-dihydro-1H-isochromen-1-one]: at least 6.70; for `CC1Cc2cc(CCC3CCN(C(=O)Cc4ccc(-n5cnnn5)cc4)CC3)ccc2C(=O)O1` (stereo not shown) [Example 80, 3-Methyl-6-[2-(1-{[4-(1H-tetrazol-1-yl)phenyl]acetyl}piperidin-4-yl)ethyl]-3,4-dihydro-1H-isochromen-1-one]: at least 6.70; for `CN(C)C1(CCc2ccc(F)c(C#N)c2)CCN(C(=O)Cc2ccc(-n3cnnn3)cc2)CC1` [Example 82, 5-{2-[4-(Dimethylamino)-1-{[4-(1H-tetrazol-1-yl)phenyl]acetyl}piperidin-4-yl]ethyl}-2-fluorobenzonitrile]: at least 6.30.
On the same count and under the same terms, the same measure for `Cc1cc(/C=C/C2CCN(CCc3ccc4c(c3)COC4=O)CC2)ccc1C#N` [Example 83]: at least 6.70; for `N#Cc1ccc(/C=C/C2CCN(CCc3ccc4c(c3)COC4=O)CC2)cc1` [Example 84, 4-[(E)-2-{1-[2-(1-Oxo-1,3-dihydro-2-benzofuran-5-yl)ethyl]piperidin-4-yl}ethenyl]benzonitrile]: at least 6.30.

The target in another assay is T2, hROMK (hKir1.1) (Homo sapiens, UniProt P48048).
T2 construct: expressed in transfected cells
T2 sequence (P48048 1-391): T1 sequence (P48048 1-391)
The experiment in a line: Thallium Flux Assay (FluxOR, FLIPR-Tetra). It is filed as cell-based. The conditions noted are these: HEK293 cells stably expressing hROMK; potency ranges. The protocol: as §1
HEK293 cells stably expressing hROMK (hKir1.1) were grown at 37° C. in a 10% CO2 humidified incubator in complete growth media: Dulbecco's Modified Eagle Medium supplemented with non-essential amino acids, Penicillin/Streptomycin/Glutamine, G418 and FBS. At >80% confluency, media was aspirated from the flask and rinsed with 10 ml Calcium/Magnesium-free PBS. 5 ml of 1× trypsin (prepared in Ca/Mg Free PBS) was added to T-225 flask and flask returned to 37° C./CO2 incubator for 2-3 minutes. To dislodge the cell, the side of the flask was gently banged by hand. Cells were completely triturated and then transferred to 25 ml complete media, and centrifuged at 1,500 rpm for 6 min followed by resuspension in complete growth media and cell concentration determined. For typical re-seeding, 4E6 cells/T-225 flask attained >80% confluency in 4 days. Under ideal growth conditions and appropriate tissue culture practices, this cell line was stable for 40-45 passages.
FluxOR™ Kit Components (Invitrogen F10017)
• FluxOR™ Reagent (Component A) • FluxOR™ Assay Buffer (Component B)—10× Concentrate • PowerLoad™ Concentrate (Component C)—100× Concentrate • Probenecid (Component D)—Lyophilized sample was kept at −20° C. Water soluble, 100× after solubilization in 1 ml water. Store at 4° C. • FluxOR™ Chloride-free Buffer (Component E)—5× Concentrate • Potassium sulfate (K2SO4) Concentrate (Component F)—125 mM in water. Stored at 4° C. • Thallium sulfate (Tl2SO4) Concentrate (Component G)—50 mM in water. […]
The molecule `Cc1c(C(O)CC2CCN(C(=O)Cc3ccc(-n4cnnn4)nc3)CC2)ccc2c1COC2=O` (racemic) [Example 110, 5-[1-Hydroxy-2-(1-{[6-(1H-tetrazol-1-yl)pyridin-3-yl]acetyl}piperidin-4-yl)ethyl]-4-methyl-2-benzofuran-1(3H)-one] gave a negative logarithm of the IC50 (pIC50) of at least 7.00.
Still for that read-out and setting: the same measure for `Cc1c([C@@H](O)CN2CCC(CN(C)c3ccc(C#N)cn3)CC2)ccc2c1COC2=O` [Example 93, 6-[({1-[(2R)-2-Hydroxy-2-(4-methyl-1-oxo-1,3-dihydro-2-benzofuran-5-yl)ethyl]piperidin-4-yl}methyl)(methyl)amino]pyridine-3-carbonitrile]: at least 6.70; for `Cc1c(SCC2CCN(C[C@H](O)c3ccc4c(c3C)COC4=O)CC2)ccc2c1COC2=O` [Example 94, 5-[({1-[(2R)-2-Hydroxy-2-(4-methyl-1-oxo-1,3-dihydro-2-benzofuran-5-yl)ethyl]piperidin-4-yl}methyl)sulfanyl]-4-methyl-2-benzofuran-1(3H)-one]: at least 7.00.
The same measure, in the same setting: the same measure for `Cc1c(OCC2CCN(C[C@H](O)c3ccc4c(c3C)COC4=O)CC2)ccc2c1COC2=O` [Example 95, 5-({1-[(2R)-2-Hydroxy-2-(4-methyl-1-oxo-1,3-dihydro-2-benzofuran-5-yl)ethyl]piperidin-4-yl}methoxy)-4-methyl-2-benzofuran-1(3H)-one]: at least 7.00; for `Cc1c([C@@H](O)CN2CCC(C[S+]([O-])c3ccc4c(c3C)COC4=O)CC2)ccc2c1COC2=O` (stereo partly drawn) [Example 96, 5-[({1-[(2R)-2-hydroxy-2-(4-methyl-1-oxo-1,3-dihydro-2-benzofuran-5-yl)ethyl]piperidin-4-yl}methyl)sulfinyl]-4-methyl-2-benzofuran-1(3H)-one]: at least 7.00; for `Cc1c([C@@H](O)CN2CCC(CS(=O)(=O)c3ccc4c(c3C)COC4=O)CC2)ccc2c1COC2=O` [Example 99]: at least 7.00.
Same read-out and setting: the same measure for `Cc1c([C@@H](O)CN2CCC(CSc3ccc(C#N)cn3)CC2)ccc2c1COC2=O` [Example 100, 6-[({1-[(2R)-2-Hydroxy-2-(4-methyl-1-oxo-1,3-dihydro-2-benzofuran-5-yl)ethyl]piperidin-4-yl}methyl)sulfanyl]pyridine-3-carbonitrile]: at least 7.00; for `Cc1c([C@@H](O)CN2CCC(F)(COc3ccc(C#N)cn3)CC2)ccc2c1COC2=O` [Example 102, 6-({4-Fluoro-1-[(2R)-2-hydroxy-2-(4-methyl-1-oxo-1,3-dihydro-2-benzofuran-5-yl)ethyl]piperidin-4-yl}methoxy)pyridine-3-carbonitrile]: at least 6.70; for `Cc1c([C@@H](O)CN2CCC(CSc3ccc4c(c3)CCOC4=O)CC2)ccc2c1COC2=O` [Example 103, 6-[({1-[(2R)-2-Hydroxy-2-(4-methyl-1-oxo-1,3-dihydro-2-benzofuran-5-yl)ethyl]piperidin-4-yl}methyl)sulfanyl]-3,4-dihydro-1H-isochromen-1-one]: at least 6.70.

By pIC50 is commonly meant −log10 of the IC50, conventionally taken in molar units. A high value points to a low IC50.

Source of the values: patent US9527830B2 (Merck Sharp & Dohme Corp., priority 2011, dated 2016).
